According to publication PMC8769072, “Proteome‐scale mapping of binding sites in the unstructured regions of the human proteome” (Molecular Systems Biology, 2022):

Tested on: immobilized GST-tagged bait protein domains
Assay: ProP-PD phage selections (HD2 P8, sublibraries, HD2 P3, HD1 P8) with NGS and confidence level
Format: binding, human
Details: for HD2_nucleus confidence: library HD2 P8 nucleus
[1] = library HD2, bait YAP1_WW_1_P46937_169_207, validated benchmark motif instance, in_library_check TRUE, TRUE/FALSE = instance recovered in ProP-PD selection
[2] = library HD2, bait EPS15_EH__P42566_121_215, whether the validated benchmark motif instance was recovered in the ProP-PD selection (TRUE/FALSE)
[3] = library HD2, bait Keap1_KELCH__Q14145_321_609, whether the validated benchmark motif instance was recovered in the ProP-PD selection (TRUE/FALSE)
[4] = HD2 library, bait SUMO1_SUMO__P63165_1_101, known motif instance of the benchmarking set found (TRUE) or not found (FALSE) among selected peptides
[5] = bait MAP1LC3B_ATG8 (Q9GZQ8 2-119), HD2 library, benchmark motif instance recovered in the ProP-PD selection (TRUE/FALSE)
[6] = HD2 library, bait TLN1_PTB__Q9Y490_309_401, known motif instance of the benchmarking set found (TRUE) or not found (FALSE) among selected peptides
[7] = bait MAP1LC3A_ATG8 (Q9H492 2-121), HD2 library, benchmark motif instance recovered in the ProP-PD selection (TRUE/FALSE)
[8] = bait PABP-B_PABP__P11940_544_623, HD2 library, confidence level (1-4) of best matching selected peptide
[9] = bait PABP-B_PABP__P11940_544_623, HD2 library, specificity score of best matching selected peptide
[10] = bait PABP-B_PABP__P11940_544_623, HD2 library, whether the validated benchmark motif instance was recovered in the ProP-PD selection (TRUE/FALSE)
[11] = library HD2, bait WDR5_WD_1234567_P61964_21_334, validated benchmark motif instance, in_library_check TRUE, TRUE/FALSE = instance recovered in ProP-PD selection
[12] = bait CALM1_EF-hand__P0DP23_2_149, library HD2, benchmarking set of validated motif instances, TRUE = motif instance recovered in the ProP-PD selection
[13] = HD2 library, bait CALM1_EF-hand__P0DP23_2_149, benchmark motif instance, in_library_check FALSE, in_library_coverage 0

GHSPPPAYTPMSGNQF
best_confidence (library HD2, bait YAP1_WW_1_P46937_169_207, confidence level of best matching selected peptide (4 High, 2-3 Medium, 1 Low)): 3 | best_specificity (library HD2, bait YAP1_WW_1_P46937_169_207, specificity score of best matching selected peptide): 1 | motif_found [1]: TRUE

GHSSRTSPLDNVGREL
HD2_nucleus confidence (bait WDR5_WD_1234567_P61964_21_334): 4

GLAFGAFTNPFTAPAAQSP
motif_found [2]: FALSE

GMEHRGPPPEYPFKGMPP
motif_found (bait NEDD4_WW_4_P46934_890_928, HD2 library, whether the validated benchmark motif instance was recovered in the ProP-PD selection (TRUE/FALSE)): FALSE | motif_found [1]: FALSE

GNVIRWHNQETGEQIAIKQC
motif_found [3]: FALSE

GPLRPVLEYIDLVSSDDEEPSTSYTD
motif_found [4]: FALSE

GPPSLNYIPPVLQLSG
best_specificity (bait CEP55_EABR__Q53EZ4_160_217, library HD2, best matching peptide): 1 | best_confidence (bait CEP55_EABR__Q53EZ4_160_217, library HD2, confidence level of best matching peptide (4 = High, 2 or 3 = Medium, 1 = Low)): 2

GPTPTEPPPPYSFRPE
HD2_cytoplasm confidence (bait NEDD4_WW_4_P46934_890_928, HD2 P8 cytoplasm sublibrary, confidence level (4 = High, 2-3 = Medium, 1 = Low)): 4

GQSLKVMPCLAPIAAKVGS
motif_found (library HD2, bait ZMYND11_coiled-coil-MYND__Q15326_480_602, validated benchmark motif instance, in_library_check TRUE, TRUE/FALSE = instance recovered in ProP-PD selection): FALSE

GRAQAEQWAAEFIQQQGTS
motif_found (bait PEX14_Pex14__O75381_16_84, HD2 library, whether the validated benchmark motif instance was recovered in the ProP-PD selection (TRUE/FALSE)): FALSE

GRDSPPSWRPQPDGEASQTEDV
motif_found (HD2 library, bait TNKS_TANK-peptide-bind__O95271_174_649, known motif instance of the benchmarking set found (TRUE) or not found (FALSE) among selected peptides): FALSE

GSSGNTHDDFVMIDFKPAFS
motif_found [5]: FALSE

GTNPTLVSVPNPVFGSDTFCEP
motif_found [6]: FALSE

GYRQSPDGACSV,YRQSPDGACS,LRNSATGYRQSPDGACSVPSAR,YRQSPDGACSV [LNPEP 95-102]
motif_found (HD2 library, bait TNKS_TANK-peptide-bind__O95271_174_649, benchmark motif instance, in_library_check FALSE, in_library_coverage 0): FALSE

HDDFVMIDFKPAFSKD
motif_found [7]: TRUE | best_confidence (bait MAP1LC3A_ATG8 (Q9H492 2-121), HD2 library, confidence level (1-4) of best matching peptide): 3 | best_specificity (bait MAP1LC3A_ATG8 (Q9H492 2-121), HD2 library, specificity score of best matching peptide): 1

HLNNDSSTTIIIDSSDETTESPTVGTAQ
motif_found [4]: FALSE

HPAPSWVAFAHTGAWG
HD2 confidence (bait AP2B1_adaptin__P63010_700_937, HD2 P8 selection, non primary paralogue peptide match, confidence level -4 to 4: 4 = High, 3 or 2 = Medium, 1 = Low, 0 = Filtered/Noise): 3

HTPRLPTLPKRVP,RRAFWHTPRLPTLPKRVPRAGEAR [CCDC8]
motif_found (bait ANKRA2_Ank__Q9H9E1_142_313, library HD2, benchmarking set of validated motif instances, TRUE = motif instance recovered in the ProP-PD selection): FALSE

IIYDRKFLMECRNSPV
best_specificity (library HD2, bait EIF4E_eIF4E__P06730_1_217, best matching peptide): 1 | best_confidence (library HD2, bait EIF4E_eIF4E__P06730_1_217, confidence level of best matching peptide (4 High, 2-3 Medium, 1 Low)): 2 | motif_found (library HD2, bait EIF4E_eIF4E__P06730_1_217, whether the validated benchmark motif instance was recovered in the ProP-PD selection (TRUE/FALSE)): TRUE

ILSKSNLNPDAKEFIP
best_confidence [8]: 2 | best_specificity [9]: 1 | motif_found [10]: TRUE

IPDTPSPTVSVITISSDTDE
motif_found [4]: FALSE

IPSAPLYEEITYSGIS
best_specificity (HD2 library, bait TSG101_UEV__Q99816_1_145, best matching selected peptide): 1 | best_confidence (HD2 library, bait TSG101_UEV__Q99816_1_145, confidence level of best matching selected peptide): 3 | motif_found (HD2 library, bait TSG101_UEV__Q99816_1_145, known motif instance of the benchmarking set found (TRUE) or not found (FALSE) among selected peptides): TRUE

IQPDSPAPNPFSEEDEHPQ
motif_found [2]: FALSE

IREHVTGCARSEGFYTIDKKD
motif_found [11]: FALSE

IYKSAVTTVVNPKYEGK----- [ITGB1 789-796]
motif_found (HD2 library, bait TLN1_PTB__Q9Y490_309_401, benchmark motif instance, in_library_check FALSE, in_library_coverage 0): FALSE

KATVEKPSNPFSGDLQKTF
motif_found [2]: FALSE

KDKEEVQRKRQKLMPNFSDS,IKDKEEVQRKRQKLMPNFSD [NFKB1 361-365]
motif_found (HD2 library, bait KPNA4_Arm__O00629_68_487, benchmark motif instance, in_library_check FALSE, in_library_coverage 0): FALSE

KDLATVNSNPFDDPDAAEL
motif_found [2]: FALSE

KEPGGSRAHSSHLKSKKGQ
motif_found (library HD2, bait USP7_MATH-TRAF__Q93009_53_206, validated benchmark motif instance, in_library_check TRUE, TRUE/FALSE = instance recovered in ProP-PD selection): FALSE

KILRLSGKP
motif_found (bait MAD2L1_HORMA (Q13257 1-205), HD2 library, benchmark motif instance recovered in the ProP-PD selection (TRUE/FALSE)): FALSE

KISPPTPKPRPPRPLPVAPGS
motif_found (library HD2, bait YES1_SH3__P07947_90_152, validated benchmark motif instance, in_library_check TRUE, TRUE/FALSE = instance recovered in ProP-PD selection): FALSE

KKAFVHMPTLPNLDFHKTGDGL
motif_found (library HD2, bait ANKRA2_Ank__Q9H9E1_142_313, motif instance NOT in library (in_library_check FALSE, in_library_coverage 0)): FALSE

KKKATFRAITSTLASSFKRR [GRIN1]
motif_found [12]: FALSE

KKRFSFKKSFKLSGFSFK [MARCKS]
motif_found [12]: FALSE

KLSKLDVLLLATTYIA
HD2_nucleus confidence (bait SIN3A_PAH__Q96ST3_295_383): 4

KMNAKWDTGENPIYKSAVTTVV
motif_found [6]: FALSE

KNSSCDTDDFVLVPHNISSD
motif_found [7]: FALSE | motif_found [5]: FALSE

KRRWKKNFIAVSAANRFKKISSSGAL [MYLK2]
motif_found [12]: FALSE

KSTLNPNAKEFNPRSF
best_confidence [8]: 2 | best_specificity [9]: 1 | motif_found [10]: TRUE

KTAEKSDFEAVEALMSMSCSWKSD [KLF10 39-48]
motif_found (HD2 library, bait SIN3A_PAH__Q96ST3_295_383, benchmark motif instance, in_library_check FALSE, in_library_coverage 0): FALSE

LAVNPTGCARSEPKMSAHVKR
motif_found [11]: FALSE

LAYLRSHKDEVVKIQSLARMHQARKRYRDRLQYF [IQGAP1 806-825]
motif_found [13]: FALSE

LDEAFSRLAQSRTNPQ
best_specificity (bait AP2B1_adaptin__P63010_700_937, library HD2, best matching peptide): 1 | best_confidence (bait AP2B1_adaptin__P63010_700_937, library HD2, confidence level of best matching peptide (4 = High, 2 or 3 = Medium, 1 = Low)): 2

LDPDKPTNFTNPVYATLYMGGH
motif_found [6]: FALSE

LELDRLMASLSDFRVQ
best_confidence (bait PTK2_Focal-AT__Q05397_891_1050, HD2 library, confidence level (1-4) of best matching selected peptide): 2 | best_specificity (bait PTK2_Focal-AT__Q05397_891_1050, HD2 library, specificity score of best matching selected peptide): 1 | motif_found (bait PTK2_Focal-AT__Q05397_891_1050, HD2 library, whether the validated benchmark motif instance was recovered in the ProP-PD selection (TRUE/FALSE)): TRUE

LETKVFPRPVLPSLTV
p3_HD2 confidence (bait ANKRA2_Ank__Q9H9E1_142_313, library HD2 P3): 2 | p3_HD2 count proportions (bait ANKRA2_Ank__Q9H9E1_142_313, library HD2 P3, mean normalised NGS counts): 0.06348 | p3_HD2 mean counts (bait ANKRA2_Ank__Q9H9E1_142_313, library HD2 P3, mean raw NGS counts, all selections): 1066 | HD2 confidence (bait ANKRA2_Ank__Q9H9E1_142_313, library HD2 P8): 4 | HD2_nc confidence (bait ANKRA2_Ank__Q9H9E1_142_313, library HD2 P8 nucleocytoplasmic): 3 | HD2_nc count proportions (bait ANKRA2_Ank__Q9H9E1_142_313, library HD2 P8 nucleocytoplasmic, mean normalised NGS counts): 0.1009 | HD2_nc mean counts (bait ANKRA2_Ank__Q9H9E1_142_313, library HD2 P8 nucleocytoplasmic, mean raw NGS counts, all selections): 4420.0

LFCQNLPPPLPPKKYA
p3_HD2 confidence (bait CRK_SH3_1_P46108_124_198, HD2 P3 library, confidence level (4 = High, 2-3 = Medium, 1 = Low)): 3 | p3_HD2 mean counts (bait CRK_SH3_1_P46108_124_198, HD2 P3 library, mean NGS counts over replicate selections): 10444.0 | p3_HD2 count proportions (bait CRK_SH3_1_P46108_124_198, HD2 P3 library, mean proportion of NGS counts): 0.2023

LFKSATTTVMNPKFAES-----
motif_found [6]: FALSE

LHIKTHLDEETGEKTSITLD
motif_found [3]: FALSE

LINVRKRNVESGEEELASKL
motif_found [3]: FALSE

LKKLPSAVIALQRSFRSKRSKMLLEINRQK [IQCB1 321-336]
motif_found [13]: FALSE

LKNINSINFDNPVYQKTTEDEV
motif_found [6]: FALSE

LKVLVKAVLFACMLMRK
motif_found (library HD2, bait CALM1_EF-hand__P0DP23_2_149, motif instance NOT in library (in_library_check FALSE, in_library_coverage 0)): FALSE

LLSIHKVYEAVELLKSNHFYR [GEMIN5 992-998]
motif_found (HD2 library, bait EIF4E_eIF4E__P06730_1_217, benchmark motif instance, in_library_check FALSE, in_library_coverage 0): FALSE

LMINPTGCARSEPKILTHYKR
motif_found [11]: FALSE
